Measured values as given in patent publication US20150203474A1, “SOLID FORMS COMPRISING INHIBITORS OF HCV NS5A, COMPOSITIONS THEREOF, AND USES THEREWITH” (PRESIDIO PHARMACEUTICALS ,INC., priority 2012, published 2015).
In brackets after ≈: the same amount, converted by molar mass. Where two headings read alike, the source gives them in different places.

Legend:
[1] = Solubility of Form I and free base compound 4-3 (visual and HPLC assay of filtrate); format: physicochemical; settings: for solubility at 24 h: thermodynamic from solid; for solubility at 24 h / HPLC Solubility / Visual Solubility (observation in words): target conc. 2.0 mg/mL; for pH (Filtrated): filtrate of solubility sample
Experimental: Solubility of Form I as well as the free base compound 4-3 was tested. Solubility was measured by placing a small quantity of the compound to be analyzed in a glass vial, capping and rotating the vial overnight at ambient conditions (24 hours). Target concentration was 2.0 mg/mL. The samples were filtrated with 0.45-μm filters. The subsequent filtrate was collected for HPLC assay. HPLC conditions are shown in Table 10 in Appendix A. Solubility for Form I is shown in Table 11 and for the free base compound 4-3 is shown in Table 12 in Appendix A. [table]

[2] = Moisture sorption profile (DVS) of Compound II Form I and amorphous Compound II; format: physicochemical; settings: DVS at 25° C.
Experimental: The moisture sorption profile was generated of the sample as well as of a sample of amorphous Compound II at 25° C. using a DVS Moisture Balance Flow System (Model Advantage) with the following conditions: sample size approximately 10 mg, drying 25° C. for 60 minutes, adsorption range 0% to 95% RH, desorption range 95% to 0% RH, and step interval 5%. The equilibrium criterion was <0.01% weight change in 5 minutes for a maximum of 120 minutes.

[3] = PK study of Form I of Compound II in monkeys; format: in vivo; settings: PO dose of 75 mg/kg; for concentration at 0.083 h / concentration at 0.25 h / concentration at 0.5 hr / concentration at 1 hr / concentration at 2 hr / concentration at 4 hr / concentration at 6 hr / concentration at 8 hr / concentration at 24 h: male, cynomolgus monkey, plasma, po, 75 mg/kg
Experimental: The pharmacokinetics (PK) properties of Form A of Compound I and Form I of Compound II were determined in a series of comprehensive experiments in preclinical species including Sprague-Dawley rats, beagle dogs, cynomolgus monkeys. In those studies, the Form A crystalline salt of Compound I (and Form I crystalline salt of Compound II) was formulated in saline, 0.5% MC in saline or other commonly used suitable formulation vehicles to give a clear solution or as a suspension or a paste depending on the concentration intended to reach and the choice of vehicles. Dosing was by oral gavage. Blood samples were drawn and placed into individual tube containing K2EDTA. Blood samples were put on ice and centrifuged (2000 g for 5 minutes at 4° C.) to obtain plasma within 15 minutes after collection. Plasma samples were stored at approximately −80° C. freezer until analysis. For most of these analyses, Compound I (and Compound II) and the internal standard (IS) were extracted from rat, monkey or dog plasma by protein precipitation, and the extract was evaporated, reconstituted and analyzed using HPLC with tandem mass spectrometric detection (HPLC-MS/MS), see examples for further details. Calibration was accomplished by weighted linear regression of the ratio of the peak area of analyte to that of the added internal standard (IS). For the validated assay in rat and monkey EDTA plasma, the Lower Limit of Quantitation (LLOQ) for both compound 1 and 2 was 5.00 ng/mL, and the assay was linear from 5.00-1,000 ng/mL. PK parameters were calculated by non-compartmental analysis using WinNonlin (versions 4.1 through 6.1). Non-naïve Cynomolgus monkeys, 3.2-3.5 kg, male Dosing solution was prepared by dissolving 682.96 mg of Form I of Compound II in 82.558 mL of 0.5% MC in saline, vortexing for 5 min and sonicating for 18 min to obtain a homogenous solution. The above solution was given to the animals at 10 mL/kg via intragastric administration To collect blood samples, the animals were restrained manually and approx. 0.6-1 mL blood/time point was collected from cephalic or sephanous veins into pre-cooled EDTA tubes. Blood samples were put on ice and centrifuged at 4° C. to obtain plasma within 30 minutes of sample collection. Plasma samples were stored at −70° C. until analysis. • Instrument LC-MS/MS (API4000) • MS conditions Positive ion, EST • HPLC conditions Mobile Phase A: H2O—0.025% formic acid—1 mM NH4OAc • Mobile Phase B: MeOH—0.025% formic acid—1 mM NH4OAc • Column: Boston Crest ODS-C18 (2.1×50 mm, 5 μm) • Flow rate: 0.40 mL/min • Compound II retention time: 2.30 min; • IS retention time: 2.29 min • Sample preparation An aliquot of 20 μL plasma sample was protein precipitated with […] which contains 5 ng/mL IS (P1100970-1). The mixture was vortexed for 2 min, and then centrifuged at 12000 rpm for 5 min. an aliquot of 5 μL supernatant was injected onto the LC-MS/MS system.

[4] = #0610703, read-out: plasma concentration
[5] = #0612169, read-out: plasma concentration
[6] = Mean, read-out: mean plasma concentration

## CC[C@H](C)[C@H](NC(=O)OC)C(=O)N1CCC[C@H]1c1nc2ccc(-c3ccc4cc(-c5cnc([C@@H]6CCCN6C(=O)[C@@H](NC(=O)OC)[C@@H](C)OC)[nH]5)ccc4c3)cc2[nH]1 [Form I of Compound II]
[1]; 0.1N HCl, simulated gastric fluid, 0.1N HCl, 24 hours ambient, 0.45-μm filtrate, read-out: HPLC Solubility
  solubility at 24 h: 2070 µg/mL (≈ 2610 µM)
[1]; 0.1N HCl, simulated gastric fluid, 0.1N HCl, read-out: Visual Solubility
  solubility at 24 h: > 2000 µg/mL
[1]; 0.1N HCl, listed as Form I
  pH (Filtrated): 1.00
[1]; Water, listed as Form I
  pH (Filtrated): 3.45
[1]; Water, 24 hours ambient, 0.45-μm filtrate, listed as Form I
  HPLC Solubility: 2036 µg/mL
[1]; pH 2 medium, pH 2, simulated gastric fluid, pH 2 medium, 24 hours ambient, 0.45-μm filtrate, read-out: HPLC Solubility
  solubility at 24 h: 2050 µg/mL (≈ 2590 µM)
[1]; pH 2 medium, pH 2, simulated gastric fluid, pH 2 medium, read-out: Visual Solubility
  solubility at 24 h: > 2000 µg/mL
[1]; pH 2 medium, listed as Form I
  pH (Filtrated): 2.00
[1]; pH 3 medium, pH 3, aqueous buffer, pH 3 medium, 24 hours ambient, 0.45-μm filtrate, read-out: HPLC Solubility
  solubility at 24 h: 2030 µg/mL (≈ 2560 µM)
[1]; pH 3 medium, pH 3, aqueous buffer, pH 3 medium, read-out: Visual Solubility
  solubility at 24 h: > 2000 µg/mL
[1]; pH 3 medium, listed as Form I
  pH (Filtrated): 2.96
[1]; pH 4 medium, listed as Form I
  pH (Filtrated): 3.55
  Visual Solubility (observation in words): A few
[1]; pH 4 medium, 24 hours ambient, 0.45-μm filtrate, listed as Form I
  HPLC Solubility: 1857 µg/mL
[1]; pH 5 medium, listed as Form I
  pH (Filtrated): 3.63
[1]; pH 5 medium
  Visual Solubility (observation in words): Turbid +
[1]; pH 5 medium, 24 hours ambient, 0.45-μm filtrate, listed as Form I
  HPLC Solubility: 1106 µg/mL
[1]; pH 6 medium, listed as Form I
  pH (Filtrated): 5.44
  Visual Solubility (observation in words): Many
[1]; pH 7 medium, listed as Form I
  pH (Filtrated): 6.86
  Visual Solubility (observation in words): Many
[1]; pH 8 medium, listed as Form I
  pH (Filtrated): 7.58
  Visual Solubility (observation in words): Many
[1]; water, Water, read-out: Visual Solubility
  solubility at 24 h: > 2000 µg/mL
[2]; 0-75% RH
  Hygroscopicity (in words): medium hygroscopic
[2]; ~85% RH and above
  Water absorption at high RH (in words): absorbed water very quickly
[2]; listed as Compound II Form I
  weight percentage change (water uptake) from 0-75% RH: 4.34%
[3]; Cynomolgus monkeys, 0.083 hr, #0610703
  plasma concentration: BQL
[3]; 0.083 hr, #0612169, read-out: plasma concentration
  concentration at 0.083 h: 8.33 ng/mL
[3]; 0.083 hr, Mean, read-out: mean plasma concentration
  concentration at 0.083 h: 8.33 ng/mL
[3]; [4]
  concentration at 0.25 h: 33.3 ng/mL
  concentration at 0.5 hr: 207 ng/mL
  concentration at 1 hr: 497 ng/mL
  concentration at 2 hr: 336 ng/mL
  concentration at 4 hr: 213 ng/mL
  concentration at 6 hr: 110 ng/mL
  concentration at 8 hr: 55.9 ng/mL
  concentration at 24 h: 8.79 ng/mL
[3]; [5]
  concentration at 0.25 h: 86.8 ng/mL
  concentration at 0.5 hr: 273 ng/mL
  concentration at 1 hr: 1140 ng/mL
  concentration at 2 hr: 954 ng/mL
  concentration at 4 hr: 435 ng/mL
  concentration at 6 hr: 194 ng/mL
  concentration at 8 hr: 93.1 ng/mL
  concentration at 24 h: 7.37 ng/mL
[3]; [6]
  concentration at 0.25 h: 60.1 ng/mL
  concentration at 0.5 hr: 240 ng/mL
  concentration at 1 hr: 819 ng/mL
  concentration at 2 hr: 645 ng/mL
  concentration at 4 hr: 324 ng/mL
  concentration at 6 hr: 152 ng/mL
  concentration at 8 hr: 74.5 ng/mL
  concentration at 24 h: 8.08 ng/mL
